Results published in patent publication US20220146497A1, “Method of Modulating a Fibrotic Condition” (The Procter & Gamble Company, priority 2019, published 2022).

How the values were obtained:
COL1A1 = experiment: Red-COL1A1 mCherry reporter assay (fluorescence from reporter downstream of the endogenous COL1A1 promoter); format: cell-based, human; conditions: increasing doses, immortalized tertBJ fibroblasts, FIG. 3A
Excerpt: In this example, RNA interference (“RNAi”) screening was used to identify genes that appear to inhibit collagen synthesis. Immortalized human skin fibroblasts (BJhTERT, available from ATCC, Manassas, Va. were modified to place an mCherry reporter gene downstream of the endogenous promoter for COL1A1 using […] (TALENs). COL1A1 is well known for its role in the synthesis of Type I collagen, sometimes referred to as collagen I, which is a fibrillar collagen that accounts for over 90% of the collagen found in the human body. The reporter gene codes for the mCherry RFP, which can be quantitated using known fluorescent protein detection techniques. Transforming growth factor beta (“TGFβ”), a well-known COL1A1 activating cytokine, was used in a fluorescence-activated cell sorting (“FACS”) technique to select for a cell line with low endogenous expression and high levels of inducible expression of the mCherry gene. […]
Automated image acquisition and analysis was used to quantitate the fluorescent protein. […] Images were analyzed using METAXPRESS brand high-content image analysis software from Molecular Devices. The percentage of cells with positive nuclear-localizing mCherry signal above background was determined using the “Translocation-Enhanced” module. […]
This increased fluorescence directly correlates to increased collagen synthesis. […]

[1] = system: immortalized tertBJ fibroblasts cells; experiment: Cell count by DAPI staining of nuclei (toxicity); format: cell-based, human; conditions: increasing concentrations, FIG. 3B
Description: This increased fluorescence directly correlates to increased collagen synthesis. The results of the positive control (TGFβ), the vehicle control for the TGFβ (Media Control), and the vehicle control for the alpha-ergocryptine (DMSO control) are also illustrated in FIG. 3A. […] Cell count was determined by staining the nuclei with 4′,6-diamidino-2-phenylindole (DAPI), which is a fluorescent stain that binds strongly to adenine-thymine rich regions in DNA. DAPI staining is a well-known technique for determining cell count in fluorescence microscopy.

CC(C)C[C@H]1C(=O)N2CCC[C@H]2[C@]2(O)O[C@](NC(=O)[C@@H]3C=C4c5cccc6[nH]cc(c56)C[C@H]4N(C)C3)(C(C)C)C(=O)N12 [alpha-ergocryptine]
COL1A1 expression (fluorescence of mCherry reporter) (COL1A1): increased COL1A1 expression | toxicity as determined by cell counts (DAPI) [1]: not toxic
